Here are results for eight compounds from patent publication US20110020460A1, “GPR 119 MODULATORS” (Pfizer Inc., priority 2009, published 2011).

pEC50, pKi: −log10 of the molar value. Several values for one entry are separate records, joined by “and”; a condition that tells them apart may be missing. Identical values can stand only once.

The target of assay [1] is T1, human GPR119 (Homo sapiens, UniProt Q8TDV5).
T1 construct: host or cells: HEK293-CRE-beta-lactamase
T1 sequence (Q8TDV5 1-335): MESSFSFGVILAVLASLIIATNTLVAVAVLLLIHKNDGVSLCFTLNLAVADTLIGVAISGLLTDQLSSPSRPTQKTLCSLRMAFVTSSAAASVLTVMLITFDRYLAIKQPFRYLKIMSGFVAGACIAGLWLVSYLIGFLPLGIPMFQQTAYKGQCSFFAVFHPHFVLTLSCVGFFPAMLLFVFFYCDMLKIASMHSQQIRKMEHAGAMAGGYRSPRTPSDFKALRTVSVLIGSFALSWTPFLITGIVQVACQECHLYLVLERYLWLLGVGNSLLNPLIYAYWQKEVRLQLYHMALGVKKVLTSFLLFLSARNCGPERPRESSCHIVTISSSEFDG
The assay can be described thus: cAMP HTRF functional assay (hGPR119 HEK-CRE beta-lactamase cells). Format: cell-based. The note with it: one value per run; for pEC50: hGPR119 HEK-CRE beta-lactamase cells, HTRF cAMP; for Intrinsic Activity* (cAMP) / Emax: percent of maximal activity relative to standard GPR119 agonist (WO2005121121) at 10 μM; for Emax: read-out: Intrinsic Activity* (cAMP). How it is done:
GPR119 agonist activity was also determined with a cell-based assay utilizing an HTRF (Homogeneous Time-Resolved Fluorescence) cAMP detection kit (cAMP dynamic 2 Assay Kit; Cis Bio cat #62AM4PEC) that measures cAMP levels in the cell. The method is a competitive immunoassay between native cAMP produced by the cells and the cAMP labeled with the dye d2. The tracer binding is visualized by a Mab anti-cAMP labeled with Cryptate. The specific signal (i.e. energy transfer) is inversely proportional to the concentration of cAMP in either standard or sample.
Following 30 minutes incubation at room temperature, 5 microL of labeled d2 cAMP and 5 microL of anti-cAMP antibody (both diluted 1:20 in cell lysis buffer; as described in the manufacturers assay protocol) were added to each well of the assay plate. […] Raw data were converted to nM cAMP by interpolation from a cAMP standard curve (as described in the manufacturer's assay protocol) and EC50 determinations were made from an agonist-response curves analyzed with a curve fitting program using a 4-parameter logistic dose response equation.
On the technique in general: In TR-FRET formats the signal depends on donor and acceptor labels being close together.

Assay [2] deals with T2, human GPR119 (Homo sapiens, UniProt Q8TDV5).
T2 construct: host or cells: U2OS
The assay can be described thus: beta-arrestin functional assay (DiscoverX PathHunter U2OS hGPR119 beta-arrestin cells). The class given is cell-based. The note with it: for pEC50: read-out: Human B-arrestin Functional EC50; for Emax: U2OS, read-out: Intrinsic Activity* (B-arrestin). How it is done:
GPR119 agonist activity was also determined with a cell-based assay utilizing DiscoverX PathHunter β-arrestin cell assay technology and their U2OS hGPR119 β-arrestin cell line (DiscoverX Cat #93-0356C3). In this assay, agonist activation is determined by measuring agonist-induced interaction of […] with activated GPR119. A small, 42 amino acid enzyme fragment, called ProLink was appended to the C-terminus of GPR119. Arrestin was fused to the larger enzyme fragment, termed EA (Enzyme Acceptor). Activation of GPR119 stimulates binding of arrestin and forces the complementation of the two enzyme fragments, resulting in formation of a functional β-galactosidase enzyme capable of hydrolyzing substrate and generating a chemiluminescent signal.
EC50 determinations were made from an agonist-response curves analyzed with a curve fitting program using a 4-parameter logistic dose response equation.
T2 sequence (P32121 whole entry partner, one chain of several): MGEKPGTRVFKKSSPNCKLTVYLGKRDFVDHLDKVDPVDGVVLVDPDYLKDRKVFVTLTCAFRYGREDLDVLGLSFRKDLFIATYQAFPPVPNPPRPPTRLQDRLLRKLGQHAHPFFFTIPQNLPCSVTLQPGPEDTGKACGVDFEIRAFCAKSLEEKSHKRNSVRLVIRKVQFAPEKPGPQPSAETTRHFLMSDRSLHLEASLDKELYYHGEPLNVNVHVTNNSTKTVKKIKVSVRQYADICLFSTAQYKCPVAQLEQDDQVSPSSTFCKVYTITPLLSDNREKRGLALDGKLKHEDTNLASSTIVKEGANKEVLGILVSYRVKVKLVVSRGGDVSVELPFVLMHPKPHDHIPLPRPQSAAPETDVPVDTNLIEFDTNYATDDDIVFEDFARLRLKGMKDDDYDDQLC

For assay [3], the target named is T1, human GPR119. The assay can be described thus: GPR119 radioligand binding assay ([3H]-Compound A or [3H]-Compound B, HEK 293FT membranes). Particulars: Ki from IC50 by Cheng-Prusoff; one value per run; read-out: Human Binding Ki. As to the method: Cells were harvested via centrifugation (3,000×g, 10 minutes), washed once on DPBS (minus Ca++/Mg++), resuspended in 0.25M sucrose, 25 mM HEPES, 0.5 mM EDTA, pH 7.4 and frozen at −80 degrees Celsius.
The frozen cells were thawed on ice and centrifuged at 700×g (1400 rpm) for 10 minutes at 4 degrees Celsius. The cell pellet was resuspended in 20 mL phosphate-buffered saline, and centrifuged at 1400 rpm for 10 minutes. […] Cells were then lysed with 15 gentle strokes of a tight-fitting glass Dounce homogenizer. The homogenate was centrifuged at 1000×g (2200 rpm) for 10 minutes at 4 degrees Celsius. The supernatant was transferred into fresh centrifuge tubes on ice. The cell pellet was resuspended in homogenization buffer, and centrifuged again at 1000×g (2200 rpm) for 10 minutes at 4 degrees Celsius after which the supernatant was removed and the pellet resuspended in homogenization buffer. […] The solution was then centrifuged at 25,000×g (15000 rpm) for 20 minutes at 4 degrees Celsius, the supernatant was discarded, and the pellet was resuspended in fresh homogenization buffer (minus Benzonase and MgCl2). After repeating the 25,000×g centrifugation step, the final membrane pellet was resuspended in homogenization buffer and frozen at −80 degrees Celsius.
2 microL of each dilution was added to appropriate wells of a 96-well plate (each concentration in triplicate).
Membranes expressing GPR119 were thawed and diluted to a final concentration of 20 μg/100 microL per well in Binding Buffer, and 100 microL of diluted membranes were added to each well of 96-well plate.
The plate was incubated for 60 minutes w/shaking at room temperature (approximately 25 degrees Celsius). […] Filters were then washed six times using washing buffer (50 mM Tris-HCl, pH 7.5 kept at 4 degrees Celsius). The filter plates were then air-dyed at room temperature overnight.
IC50 determinations were made from competition curves, analyzed with a proprietary curve fitting program (SIGHTS) and a 4-parameter logistic dose response equation. Ki values were calculated from IC50 values, using the Cheng-Prusoff equation.

Assay [4] addresses T1, human GPR119. The assay can be described thus: beta-lactamase reporter functional assay (hGPR119 HEK293-CRE beta-lactamase cells). The class given is cell-based. Particulars: one value per run; for pEC50: hGPR119 HEK293-CRE beta-lactamase cells, read-out: Human B-lactamase Functional EC50; for Emax / Intrinsic Activity* (B-lactamase): percent of maximal activity relative to standard GPR119 agonist (WO2005121121) at 10 microM; for Emax: read-out: Intrinsic Activity* (B-lactamase). How it is done: The assay for GPR119 agonists utilizes a cell-based (hGPR119 HEK293-CRE beta-lactamase) reporter construct where agonist activation of human GPR119 is coupled to beta-lactamase production via a cyclic AMP response element (CRE). GPR119 activity is then measured utilizing a FRET-enabled beta-lactamase substrate, CCF4-AM (Live Blazer FRET-B/G Loading kit, Invitrogen cat #K1027). […] After 4 hours the plating medium was removed and replaced with 40 microL of assay medium (Assay medium is plating medium without potassium clavulanate and HIFBS). Varying concentrations of each compound to be tested was then added in a volume of 10 microL (final DMSO≦0.5%) and the cells were incubated for 16 hours at 37 degrees Celsius in a humidified environment containing 5% carbon dioxide. Plates were removed from the incubator and allowed to equilibrate to room temperature for approximately 15 minutes. 10 microL of 6×CCF4/AM working dye solution (prepared according to instructions in the Live Blazer FRET-B/G Loading kit, Invitrogen cat #K1027) was added per well and incubated at room temperature for 2 hours in the dark. Fluorescence was measured on an EnVision fluorimetric plate reader, excitation 405 nm, emission 460 nm/535 nm. EC50 determinations were made from agonist-response curves analyzed with a curve fitting program using a 4-parameter logistic dose-response equation.

The mark [5] stands for this setting: **curve was extrapolated to 100% to calculate an EC50.
Setting [6] is: U2OS hGPR119 beta-arrestin cells, one value per run.

As usually defined, the pEC50 is the EC50 on a negative log10 scale, so that one unit is a factor of ten. Turning to `CC1(OC(=O)N2CCC(n3ncc(COc4ccc(C(N)=O)cc4)c3C#N)CC2)CC1` [Example 16, 1-Methylcyclopropyl 4-{4-[(4-carbamoylphenoxy)methyl]-5-cyano-1H-pyrazol-1-yl}piperidine-1-carboxylate], on human GPR119 [1], the negative-log EC50 (pEC50) was 6.69 and 6.78 and 6.50; the “Intrinsic Activity* (cAMP)” value was 102% and 119%; the Emax was determined as 105%. Moreover, on human GPR119 [2] (setting [5]), the negative logarithm of the EC50 (pEC50) is 6.38 and the Emax is 100%. Besides, the pEC50 on human GPR119 [2] (setting [6]) was 6.33.
Regarding `CC1(OC(=O)N2CCC(n3ncc(COc4ccc(C#N)cc4)c3C#N)CC2)CC1` [Example 17, 1-Methylcyclopropyl 4-(5-cyano-4-((4-cyanophenoxy)methyl)-1H-pyrazol-1-yl)piperidine-1-carboxylate], the negative logarithm of the EC50 (pEC50) at human GPR119 [1] is 7.41 and 7.59; on human GPR119 [2] (setting [6]), 6.79. Besides, on human GPR119 [1], the “Intrinsic Activity* (cAMP)” value was determined as 91%. Moreover, the Emax at human GPR119 [1] was determined as 95%; on human GPR119 [2] (percent of maximal activity relative to standard GPR119 agonist (WO2005121121) at 10 microM, one value per run) it was 67%.
By pKi is commonly meant −log10 of the Ki, conventionally taken in molar units. As for `CC(C)OC(=O)N1CCC(n2ncc(COc3c(F)ccc(F)c3F)c2C#N)CC1` [Example 32, Isopropyl 4-{5-cyano-4-[(2,3,6-trifluorophenoxy)methyl]-1H-pyrazol-1-yl}piperidine-1-carboxylate], the pKi at human GPR119 [3] was 6.29. On human GPR119 [1], the negative-log EC50 (pEC50) is 7.18 and 7.19 and 7.24; the “Intrinsic Activity* (cAMP)” value is 78% and 60%; the Emax worked out at 66%. Moreover, on human GPR119 [4], the pEC50 was 6.55 and the Emax came out at 86%.
In the case of `CC(C)OC(=O)N1CCC(n2ncc(COc3ccc(-c4nccn4C)cc3F)c2C#N)CC1` [Example 33, Isopropyl 4-(5-cyano-4-{[2-fluoro-4-(1-methyl-1H-imidazol-2-yl)phenoxy]methyl}-1H-pyrazol-1-yl)piperidine-1-carboxylate], at human GPR119 [1], the pEC50 is 6.61 and 6.56; the “Intrinsic Activity* (cAMP)” value is recorded as 92%; the Emax was determined as 85%. Also, on human GPR119 [2] (setting [5]), the negative-log EC50 (pEC50) is 5.88 and the Emax was 100%.
For `CC(C)OC(=O)N1CCC(n2ncc(COc3ccc(-c4cncn4C)cc3F)c2C#N)CC1` [Example 34, Isopropyl 4-(5-cyano-4-{[2-fluoro-4-(1-methyl-1H-imidazol-5-yl)phenoxy]methyl}-1H-pyrazol-1-yl)piperidine-1-carboxylate], the negative-log Ki (pKi) on human GPR119 [3] was 7.06. For the same compound, on human GPR119 [1], the pEC50 is 7.26 and 7.15; the “Intrinsic Activity* (cAMP)” value is listed as 78%; the Emax was determined as 94%. Further, at human GPR119 [4], the pEC50 is 6.57 and the Emax is 102%.
Regarding `Cc1nc(-n2cncn2)ccc1OCc1cnn(C2CCN(C(=O)OC(C)C)CC2)c1C#N` [Example 35, Isopropyl 4-[5-cyano-4-({[2-methyl-6-(1H-1,2,4-triazol-1-yl)pyridin-3-yl]oxy}methyl)-1H-pyrazol-1-yl]piperidine-1-carboxylate], the pKi on human GPR119 [3] is 7.51 and 7.54. Besides, at human GPR119 [1], the negative-log EC50 (pEC50) was 7.74 and 7.51; the “Intrinsic Activity* (cAMP)” value is on record as 66%; the Emax was 76%. On human GPR119 [4], the negative-log EC50 (pEC50) was 7.12 and 6.90; the “Intrinsic Activity* (B-lactamase)” value was 101%; the Emax is 83%.
With `Cc1nc(-n2cncn2)ccc1NCc1cnn(C2CCN(C(=O)OC(C)C)CC2)c1C#N` [Example 36, Isopropyl 4-[5-cyano-4-({[2-methyl-6-(1H-1,2,4-triazol-1-yl)pyridin-3-yl]amino}methyl)-1H-pyrazol-1-yl]piperidine-1-carboxylate], the pKi on human GPR119 [3] was 6.28 and 5.84. Also, at human GPR119 [1], the pEC50 is 6.55 and 6.59; the “Intrinsic Activity* (cAMP)” value is 51% and 76%. At human GPR119 [4], the pEC50 was 6.07 and the Emax was 100%.
Turning to `Cc1nc(S(C)(=O)=O)ccc1NCc1cnn(C2CCN(C(=O)OC(C)C)CC2)c1C#N` [Example 37, Isopropyl 4-[5-cyano-4-({[2-methyl-6-(methylsulfonyl)pyridin-3-yl]amino}methyl)-1H-pyrazol-1-yl]piperidine-1-carboxylate], the negative logarithm of the Ki (pKi) on human GPR119 [3] was 6.38. Also, at human GPR119 [1], the pEC50 is 5.94 and the Emax turned out to be 56%. For the same compound, at human GPR119 [4], the negative logarithm of the EC50 (pEC50) was 6.48 and 6.09; the “Intrinsic Activity* (B-lactamase)” value came to 105%; the Emax was found to be 114%.
